# PubChem BioAssay (NCI)
#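 Exposure lasted 48 hours, with cells grown in 96-well plates and compounds tested at five concentrations. TGI is the concentration that stops growth completely.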
# Columns and labels:
# Assay in all cases: NCI anticancer screen, dose series, 48 h
# [1] = system: 786-0 renal
# [2] = system: A498 renal
# [3] = system: A549 NSCLC
# [4] = system: ACHN renal
# [5] = system: CAKI-1 renal
# [6] = system: CCRF-CEM leukemia
# [7] = system: COLO 205 colon
# [8] = system: DLD-1 colon
# [9] = system: DMS 114 small cell lung
# [10] = system: DMS 273 small cell lung
# [11] = system: EKVX NSCLC
# [12] = system: HCC-2998 colon
# [13] = system: HCT-116 colon
# [14] = system: HCT-15 colon
# [15] = system: HL-60(TB) leukemia
# [16] = system: HOP-18 NSCLC
# [17] = system: HOP-62 NSCLC
# [18] = system: HOP-92 NSCLC
# [19] = system: HT29 colon
# [20] = system: IGROV1 ovarian
# [21] = system: K-562 leukemia
# [22] = system: KM12 colon
# [23] = system: KM20L2 colon
# [24] = system: LOX IMVI melanoma
# [25] = system: LXFL 529 NSCLC
# [26] = system: M14 melanoma
# [27] = system: M19-MEL melanoma
# [28] = system: MALME-3M melanoma
# [29] = system: MOLT-4 leukemia
# [30] = system: NCI-H226 lung
# [31] = system: NCI-H23 lung
# [32] = system: NCI-H460 lung
# [33] = system: NCI-H522 lung
# [34] = system: OVCAR-3 ovarian
# [35] = system: OVCAR-4 ovarian
# [36] = system: OVCAR-5 ovarian
# [37] = system: OVCAR-8 ovarian
# [38] = system: RPMI-8226 leukemia
# [39] = system: RXF 393 renal
# [40] = system: SF-268 CNS
# [41] = system: SF-295 CNS
# [42] = system: SF-539 CNS
# [43] = system: SK-MEL-2 melanoma
# [44] = system: SK-MEL-28 melanoma
# [45] = system: SK-MEL-5 melanoma
# [46] = system: SK-OV-3 ovarian
# [47] = system: SN12C renal
# [48] = system: SNB-19 CNS
# [49] = system: SNB-75 CNS
# [50] = system: SNB-78 CNS
# [51] = system: SR leukemia
# [52] = system: SW-620 colon
# [53] = system: TK-10 renal
# [54] = system: U251 CNS
# [55] = system: UACC-257 melanoma
# [56] = system: UACC-62 melanoma
# [57] = system: UO-31 renal
# [58] = system: XF 498 CNS
# [59] = system: RXF-631 renal
smiles,measurement,setting,value
O=C(/C(=C\c1ccccc1)CN1CCOCC1)c1ccc(Br)cc1,TGI,[1],3.13 µM
same,TGI,[2],12.3 µM
same,TGI,[3],17 µM
same,TGI,[4],3.42 µM
same,TGI,[5],3.95 µM
same,TGI,[6],11.1 µM
same,TGI,[7],7.71 µM
same,TGI,[8],3.13 µM
same,TGI,[9],4.5 µM
same,TGI,[10],6.47 µM
same,TGI,[11],9.47 µM
same,TGI,[12],29.6 µM
same,TGI,[13],3.2 µM
same,TGI,[14],4.22 µM
same,TGI,[15],4.48 µM
same,TGI,[16],3.85 µM
same,TGI,[17],13.1 µM
same,TGI,[18],10.8 µM
same,TGI,[19],4.56 µM
same,TGI,[20],9.32 µM
same,TGI,[21],15.9 µM
same,TGI,[22],3.74 µM
same,TGI,[23],7.12 µM
same,TGI,[24],3.22 µM
same,TGI,[25],4.67 µM
same,TGI,[26],3.27 µM
same,TGI,[27],3.43 µM
same,TGI,[28],3.31 µM
same,TGI,[29],19 µM
same,TGI,[30],12.7 µM
same,TGI,[31],8.48 µM
same,TGI,[32],8.79 µM
same,TGI,[33],2.59 µM
same,TGI,[34],6.93 µM
same,TGI,[35],8.11 µM
same,TGI,[36],9.14 µM
same,TGI,[37],3.34 µM
same,TGI,[38],10.7 µM
same,TGI,[39],5.99 µM
same,TGI,[40],9.9 µM
same,TGI,[41],15.6 µM
same,TGI,[42],5.9 µM
same,TGI,[43],3.74 µM
same,TGI,[44],3.85 µM
same,TGI,[45],4.08 µM
same,TGI,[46],11.2 µM
same,TGI,[47],4.35 µM
same,TGI,[48],12.7 µM
same,TGI,[49],24.9 µM
same,TGI,[50],20.6 µM
same,TGI,[51],17.4 µM
same,TGI,[52],2.72 µM
same,TGI,[53],12.2 µM
same,TGI,[54],6.34 µM
same,TGI,[55],8.93 µM
same,TGI,[56],2.98 µM
same,TGI,[57],3.29 µM
same,TGI,[58],9.72 µM
CCOC(=O)C1C(=O)C(C(=O)OCC)C(c2ccccc2)N(C)C1c1ccccc1 (stereo not given),TGI,[1],> 100 µM
same,TGI,[2],> 100 µM
same,TGI,[3],> 100 µM
same,TGI,[4],> 100 µM
same,TGI,[5],> 100 µM
same,TGI,[6],> 100 µM
same,TGI,[7],> 100 µM
same,TGI,[8],> 100 µM
same,TGI,[9],> 100 µM
same,TGI,[10],> 100 µM
same,TGI,[11],> 100 µM
same,TGI,[13],> 100 µM
same,TGI,[14],> 100 µM
same,TGI,[15],> 100 µM
same,TGI,[17],> 100 µM
same,TGI,[18],> 100 µM
same,TGI,[19],> 100 µM
same,TGI,[20],> 100 µM
same,TGI,[21],> 100 µM
same,TGI,[22],> 100 µM
same,TGI,[23],> 100 µM
same,TGI,[24],> 100 µM
same,TGI,[25],> 100 µM
same,TGI,[26],> 100 µM
same,TGI,[27],> 100 µM
same,TGI,[28],> 100 µM
same,TGI,[29],> 100 µM
same,TGI,[30],> 100 µM
same,TGI,[31],> 100 µM
same,TGI,[32],> 100 µM
same,TGI,[33],> 100 µM
same,TGI,[34],> 100 µM
same,TGI,[35],> 100 µM
same,TGI,[36],> 100 µM
same,TGI,[37],> 100 µM
same,TGI,[39],> 100 µM
same,TGI,[59],> 100 µM
same,TGI,[40],> 100 µM
same,TGI,[41],> 100 µM
same,TGI,[42],> 100 µM
same,TGI,[43],> 100 µM
same,TGI,[44],> 100 µM
same,TGI,[45],> 100 µM
same,TGI,[46],> 100 µM
same,TGI,[47],> 100 µM
same,TGI,[48],> 100 µM
same,TGI,[49],> 100 µM
same,TGI,[50],> 100 µM
same,TGI,[51],> 100 µM
same,TGI,[52],> 100 µM
same,TGI,[53],> 100 µM
same,TGI,[54],> 100 µM
same,TGI,[55],> 100 µM
same,TGI,[56],> 100 µM
same,TGI,[57],> 100 µM
Cc1cccc(C)c1NC(=O)C(=O)C(C#N)c1ccccc1Cl (stereo not given),TGI,[1],> 100 µM
same,TGI,[2],> 100 µM
same,TGI,[3],> 100 µM
same,TGI,[4],> 100 µM
same,TGI,[5],> 100 µM
same,TGI,[6],> 100 µM
same,TGI,[7],> 100 µM
same,TGI,[8],> 100 µM
same,TGI,[9],> 100 µM
same,TGI,[10],> 100 µM
same,TGI,[11],> 100 µM
same,TGI,[12],> 100 µM
same,TGI,[13],> 100 µM
same,TGI,[14],> 100 µM
same,TGI,[15],> 100 µM
same,TGI,[16],> 100 µM
same,TGI,[17],> 100 µM
same,TGI,[18],> 100 µM
same,TGI,[19],> 100 µM
same,TGI,[20],> 100 µM
same,TGI,[21],> 100 µM
same,TGI,[22],> 100 µM
same,TGI,[23],> 100 µM
same,TGI,[25],> 100 µM
same,TGI,[26],> 100 µM
same,TGI,[27],> 100 µM
same,TGI,[28],> 100 µM
same,TGI,[29],> 100 µM
same,TGI,[30],> 100 µM
same,TGI,[31],> 100 µM
same,TGI,[32],> 100 µM
same,TGI,[33],> 100 µM
same,TGI,[34],> 100 µM
same,TGI,[35],> 100 µM
same,TGI,[36],> 100 µM
same,TGI,[37],> 100 µM
same,TGI,[38],> 100 µM
same,TGI,[39],> 100 µM
same,TGI,[40],> 100 µM
same,TGI,[41],> 100 µM
same,TGI,[42],> 100 µM
same,TGI,[43],> 100 µM
same,TGI,[44],> 100 µM
same,TGI,[45],> 100 µM
same,TGI,[46],> 100 µM
same,TGI,[47],> 100 µM
same,TGI,[48],> 100 µM
same,TGI,[49],> 100 µM
same,TGI,[50],> 100 µM
same,TGI,[51],> 100 µM
same,TGI,[52],> 100 µM
same,TGI,[53],> 100 µM
same,TGI,[54],> 100 µM
same,TGI,[55],> 100 µM
same,TGI,[56],> 100 µM
same,TGI,[57],> 100 µM
same,TGI,[58],> 100 µM
